Results published in ChEMBL document CHEMBL5725612, “Pyridone FabI inhibitors and uses thereof” (2018).

Biological target: T1, Enoyl-[acyl-carrier-protein] reductase [NADPH] FabI (Staphylococcus aureus, UniProt Q6GI75)
T1 sequence (Q6GI75 whole entry): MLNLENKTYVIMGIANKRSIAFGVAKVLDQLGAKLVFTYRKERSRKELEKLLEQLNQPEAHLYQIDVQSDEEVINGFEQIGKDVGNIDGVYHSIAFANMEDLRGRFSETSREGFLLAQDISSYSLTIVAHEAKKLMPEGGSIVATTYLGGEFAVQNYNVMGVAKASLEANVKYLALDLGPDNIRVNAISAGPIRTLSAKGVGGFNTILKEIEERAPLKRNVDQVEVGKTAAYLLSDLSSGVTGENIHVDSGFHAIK
Experiment: Tight-binding assay: Kinetics were performed on a Cary 100 spectrophotometer (Varian) at 20° C. Reaction velocities were measured by monitoring the oxidation of NAD(P)H to NAD(P)+ at 340 nm (Figure US10071965-20180911-P00001=6220 M−1 cm−1). For saFabI, the reaction mixture was identical to that described previously for progress curve experiments (Schiebel et al. (2012). Structure 20:802-13). For ecFabI, the final reaction mixture contained ecFabI (75 nM), trans-2-butenoyl-CoA (800 μM; Sigma and Advent Bio), NADH (300 μM; Sigma), NAD+ (400 μM; Sigma), and inhibitor (2 v/v % DMSO) in 50 mM potassium phosphate, pH 7.5, 150 mM NaCl, 8 v/v % glycerol. For InhA, the final reaction mixture contained InhA (100 nM), trans-2-octenoyl-CoA (200 μM), NADH (250 μM), NAD+ (200 μM), and inhibitor (2 v/v % DMSO) in 30 mM PIPES, pH 6.8, 150 mM NaCl, 1 mM EDTA, 8 v/v % glycerol. The resulting curves were fit to the Morrison and Walsh integrated rate equation (Equation 1) (Morrison et al.

SMILES: Oc1ccccc1Oc1ccccc1
- Ki: 24.5 µM
